We go through one compound from patent publication US20040180812A1, “Methods of treating and preventing proliferative disease” (Technology Center, priority 2002, published 2004).

Structures are written as SMILES. Like-named read-outs stand apart in the source and are kept apart here.

The subject of assay [1] is U-87 glioblastoma cells. In words: Clonogenic assay. The format is cell-based, human. The following applies: 25, 50, 100 μM, four hours exposure. The method, then:
(§1) U-87 glioblastoma cells and A-549 non-small cell lung cancer cells (American Type Culture Collection) were maintained in alpha MEM (Sigma) with 10% fetal bovine serum (Atlanta Biologicals). Tumor cell lines were expanded as a monolayer culture by serial passage on tissue culture plates in tumor media (alpha MEM with 10% fetal bovine serum).
(§2) The effect of clopidogrel and Aggrenox™ on U-87 and A-549 survival was determined by preparing single cell suspensions from each cell culture. The cells were subjected to three concentrations of each drug (25, 50, or 100 μM) for four hours in medium. The suspensions were serially diluted with medium. The cells were then seeded in triplicate in 50 mm flasks. After 6 to 14 days of incubation, the cultures were stained with crystal violet and counted.

Assay [2] relates to human U87 gliobastoma tumor xenografts. The method, then: Glioblastoma cell line U-87 (ATCC) was cultured in 150 cm^2 polystyrene flasks (Fisher cat. no. 355001) in Alpha MEM media (Cellgro® cat. no. 15-012-CV) supplemented with 10% FBS, 1× non essential amino acids (Cellgro® cat. no. 25-025-Cl), 0.1% glucose (Sigma® cat. no. G8644), 2 mM L-glutamine (Gibco BRL® cat. no. 25030-081) and 0.2% sodium bicarbonate (Cellgro® cat. no. 25-035-Cl) to sub-confluence (80%). Prior to cell dissociation, the culture was washed once with 1×PBS (Bio Whittaker® cat. no. 16-006Y) and dissociated with trypsin free Cellstripper™ (Cellgro® cat. no. 25-056-Cl). Suspended cells were counted using the model Z1 Coulter® particle counter.
Male mice (NCR-NU-M, Taconic®), 3-5 weeks old, were anesthetized with 0.2 mls Nembutal® (10 mg/ml in sterile water) subcutaneous in the back of the neck. Once anesthetized, each mouse was injected subcutaneous with 5×10^5 cells/0.2 ml in the right hind flank. Tumors were allowed to grow to 60 mm^3 prior to treatment. Tumor volume was calculated by the following formula from orthogonal measurements using Fisher Scientific® electronic digital calipers. [formula]
Tumors were allowed to grow to a final volume of 2000 mm^3 where upon the treatment was terminated and the mice were sacrificed using a CO2 gas chamber.
Treatment groups were evaluated for tumor growth delay. A 60 mg/kg/day solution of Plavix® (clopidogrel bisulfate) was prepared by crushing and dissolving 75 mg tablets in water (pH 1.0). The solute was filtered through a Nalgene® filtration unit (cat. no. 126-0020) and the pH raised to 1.78. Mice were gavaged daily with 0.2 ml solution of Plavix® and vehicle controls were gavaged daily with 0.2 ml acidified water pH 1.78.
Prior to X-ray irradiation, mice were anesthetized with […] Ketamine HCl (Ketaset III®, Fort Dodge®) and […] Acepromazine Maleate (Phoenix pharmaceutical, Inc.) by subcutaneous injection in the back to the neck. Tumors on the right hind leg were exposed to 7.5 Gy three times on alternate days for one week using a Pantek X-ray irradiator.

Assay [3] deals with A-549 non-small cell lung cancer cells. Description: Clonogenic assay. It counts as cell-based. As to conditions: 25, 50, 100 μM, four hours exposure. As for the experimental part:
as §1, §2

The test system of assay [4] is U-87 glioblastoma cells. Description: In-vitro determination of proliferation (Coulter counter). The format is cell-based, human. As for the experimental part:
as §1
(§3) The cell doubling time was determined for both U-87 and A-549 tumor cells. A total of 1×10^6 Cells from resting culture were seeded in 50 mm flasks with medium and allowed to adhere for approximately Three hours. Clopidogrel and Aggrenox™ were then added in concentrations of 25, 50, or 100 μM. After further incubation for four hours, controls and treated dishes were trypsinized and counted in a Coulter Counter ZM. This count served as the starting count for proliferation and confirmed similar cell adhesion in each series. Cells were then counted every 24 hours for a total of 96 hours.

For assay [5], the system named is A-549 non-small cell lung cancer cells. The assay is described as above. The format is cell-based. The method, then:
as §1, §3

The subject of assay [6] is U-87 tumor. The method, then: In order to evaluate the effect of clopidogrel on U-87 tumor growth rate, U-87 cell suspension was injected subcutaneously into the right hind limb (5×10^5 cells in 50 μl PBS) of athymic NCR NUM mice (Taconic Farms). The clopidogrel was added to the drinking water in concentrations of 0.135 (low), 0.180 (intermediate) or 0.225 mg/ml (high). This was equivalent to an oral dose of approximately 15, 20, or 25 mg/kg/day. Mice were not pretreated prior to tumor implantation. The mice were randomized to five groups (control, low, intermediate and high concentration and non-solubilized drug) with five mice per group.
U-87 tumors were allowed to grow for approximately 10-14 days until reaching an approximate volume of 40-85 mm^3, before treatment. Tumor volume was determined daily by direct measurement with calipers and calculated by the formula [(smallest diameter^2×widest diameter)/2]. Daily weights were obtained.
Polynomial regression lines were fit to the data for each individual mouse for 20-24 days. Means were taken at two-day intervals for mice in each group.
U-87 cells were inoculated into the right hind limb of athymic NCR NUM mice. […] U-87 tumors were allowed to grow for approximately 10-14 days until reaching an approximate volume of 40-85 mm^3, before treatment. Clopidogrel was added to the drinking water in concentrations of 0.135 (low), 0.180 (intermediate) or 0.225 mg/ml (high). This was equivalent to an oral dose of approximately 15, 20, or 25 mg/kg/day. Tumor dimensions and animal weights were taken daily.

The mark [7] stands for this setting: highest concentration 100 μM, counted every 24 h for 96 h.

Turning to `COC(=O)[C@H](c1ccccc1Cl)N1CCc2sccc2C1` [clopidogrel, clopidogrel bisulfate], in assay [1], the “U-87 clonogenic cell survival compared with Aggrenox results” value is “exaggerated”. In addition, the “Tumor growth Delay (Experiment 1)” value in assay [2] (Plavix alone) was determined as 5 days. The figures for the “Tumor growth Delay (Experiment 2)” value in assay [2] (Plavix alone) and in assay [2] (Radiation plus Plavix) were 5 days and 16 days, respectively. Moreover, the “tumor growth delay (TGD)” value in assay [2] (Plavix alone, 60 mg/kg/day gavage) was determined as 5 days; in assay [2] (radiation (7.5 Gy three times) and Plavix 60 mg/kg/day combined), 16 days. Moreover, the “TGD more than radiation alone” value in assay [2] (radiation and Plavix combined versus radiation alone) was 4 days. In addition, the “A-549 clonogenic cell survival compared with Aggrenox results” value in assay [3] was “exaggerated”. Further, the “proliferation of U-87 cells” value in assay [4] (setting [7]) is “considerably inhibited”. For the same compound, the “cell proliferation (U-87)” value in assay [4] (lowest concentration (25 μM)) was “did not significantly affect cell proliferation”. Also, the A-549 cell proliferation entry in assay [5] (setting [7]) is reported as “even more drastically inhibited”. The “cell proliferation (A-549)” value in assay [5] (lowest concentration (25 μM)) is reported as “did not significantly affect cell proliferation”. The “dose response of tumor growth delay” value in assay [6] (0.135, 0.180, 0.225 mg/ml in drinking water) is recorded as “A dose response was noted”. Moreover, the tumor growth delay entry was “much more dramatic” in assay [6] (highest concentration 0.225 mg/ml in drinking water, approx. 25 mg/kg/day oral) and “small growth delay” in assay [6] (lowest concentration 0.135 mg/ml in drinking water, approx. 15 mg/kg/day oral).
